# Data as given in US20070117743A1, “New antitumoral compounds” (priority 2003, published 2007).
# Like-named read-outs stand apart in the source and are kept apart here. Where a SMILES comes first, the peptide text is derived from it. Bridges are numbered along the chain shown (N, C = ends). [ ]: non-standard residue; d: D form. The star is where a group is joined. d(aIle) = CC[C@H](C)[C@@H](N)C(=O)O; d(aThr) = C[C@@H](O)[C@@H](N)C(=O)O; Hexanoyl(5-Me) = CC(C)CCCC(=O)*; Orn = NCCC[C@H](N)C(=O)O; Dhb = C/C=C(\N)C(=O)O
# Legend:
# Format in all cases: cell-based, human
# HeLa = assay: SRB colorimetric assay of cell growth and viability, HeLa; conditions: 48 hours exposure; for CC50: read-out: LC50 HELA
# HeLa-APL = assay: SRB colorimetric assay of cell growth and viability, HeLa-APL; conditions: 48 hours exposure; for CC50: read-out: LC50 HELA-APL
# HT-29 = assay: SRB colorimetric assay of cell growth and viability, HT-29; conditions: 48 hours exposure; for GI50: read-out: GI50 HT-29; for CC50: read-out: LC50 HT-29
# IGROV-1 = assay: SRB colorimetric assay of cell growth and viability, IGROV-1; conditions: 48 hours exposure
# LNCaP = assay: SRB colorimetric assay of cell growth and viability, LNCaP; conditions: 48 hours exposure; for GI50: read-out: GI50 LN-caP; for CC50: read-out: LC50 LN-caP
# A-549 = assay: SRB colorimetric assay of cell growth and viability, A-549; conditions: 48 hours exposure; for GI50: read-out: GI50 A-549; for CC50: read-out: LC50 A-549
# SK-BR-3 = assay: SRB colorimetric assay of cell growth and viability, SK-BR-3; conditions: 48 hours exposure
# PANC-1 = assay: SRB colorimetric assay of cell growth and viability, PANC-1; conditions: 48 hours exposure; for CC50: read-out: LC50 PANC-1
# DU-145 = assay: SRB colorimetric assay of cell growth and viability, DU-145; conditions: 48 hours exposure
# LoVo = assay: SRB colorimetric assay of cell growth and viability, LoVo; conditions: 48 hours exposure; for CC50: read-out: LC50 LOVO
# K-562 = assay: SRB colorimetric assay of cell growth and viability, K-562; conditions: 48 hours exposure; for CC50: read-out: LC50 K-562
# SK-MEL-28 = assay: SRB colorimetric assay of cell growth and viability, SK-MEL-28; conditions: 48 hours exposure; for CC50: read-out: LC50 MEL-28
# IGROV-ET = assay: SRB colorimetric assay of cell growth and viability, IGROV-ET; conditions: 48 hours exposure; for CC50: read-out: LC50 IGROV-ET
# LoVo-Dox = assay: SRB colorimetric assay of cell growth and viability, LoVo-Dox; conditions: 48 hours exposure; for CC50: read-out: LC50 LOVO-DOX
# Outline: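 First, 5×10^3 cells per well attach for 18 hours in RPMI 1640 with 10% FBS at 37° C and 5% CO2. Next, samples spanning 10 to 10^−8 μg/mL are added for 48 hours. Finally, cells are fixed with TCA, stained with SRB for 10 minutes and read at 490 nm.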
smiles,measurement,setting,value
"C/C=C1\NC(=O)[C@H](Cc2ccccc2)NC(=O)[C@@H](C(C)C)NC(=O)[C@@H]([C@@H](C)CC)NC(=O)[C@H](NC(=O)[C@H](NC(=O)[C@H](CCCN)NC(=O)[C@H]2CCCN2C(=O)[C@H](NC(=O)[C@@H](NC(=O)[C@@H](NC(=O)[C@H](NC(=O)CCCC(C)C)C(C)C)[C@@H](C)O)C(C)C)C(C)C)[C@@H](C)CC)[C@H](C)OC(=O)[C@H](C(C)C)NC1=O [Compound 2, [D-Thr^6]-KF]",GI50,HeLa,≥ 6.77 µM
same,TGI HELA,HeLa,6.77E−06 Molar
same,CC50,HeLa,≥ 6.77 µM
same,GI50,HeLa-APL,≥ 6.77 µM
same,TGI HELA-APL,HeLa-APL,6.77E−06 Molar
same,CC50,HeLa-APL,≥ 6.77 µM
same,TGI HT-29,HT-29,6.77E−06 Molar
same,GI50,HT-29,≥ 6.77 µM
same,CC50,HT-29,≥ 6.77 µM
same,GI50,IGROV-1,1.99 µM
same,LC50 (concentration causing 50% net cell killing),IGROV-1,≥ 6.77 µM
same,TGI IGROV,IGROV-1,5.33E−06 Molar
same,TGI LN-caP,LNCaP,6.77E−06 Molar
same,GI50,LNCaP,2.13 µM
same,CC50,LNCaP,≥ 6.77 µM
same,TGI A-549,A-549,6.77E−06 Molar
same,GI50,A-549,≥ 6.77 µM
same,CC50,A-549,≥ 6.77 µM
same,GI50,SK-BR-3,4.47 µM
same,LC50,SK-BR-3,≥ 6.77 µM
same,TGI SK-BR-3,SK-BR-3,6.77E−06 Molar
same,GI50,PANC-1,≥ 6.77 µM
same,TGI PANC-1,PANC-1,6.77E−06 Molar
same,CC50,PANC-1,≥ 6.77 µM
same,GI50,DU-145,5.29 µM
same,LC50 (concentration causing 50% net cell kill),DU-145,≥ 6.77 µM
same,TGI DU-145,DU-145,6.77E−06 Molar
same,GI50,LoVo,≥ 6.77 µM
same,TGI LOVO,LoVo,6.77E−06 Molar
same,CC50,LoVo,≥ 6.77 µM
same,GI50,K-562,≥ 6.77 µM
same,TGI K-562,K-562,6.77E−06 Molar
same,CC50,K-562,≥ 6.77 µM
same,GI50,SK-MEL-28,≥ 6.77 µM
same,TGI MEL-28,SK-MEL-28,6.77E−06 Molar
same,CC50,SK-MEL-28,≥ 6.77 µM
same,GI50,IGROV-ET,1.6 µM
same,TGI IGROV-ET,IGROV-ET,3.80E−06 Molar
same,CC50,IGROV-ET,≥ 6.77 µM
same,GI50,LoVo-Dox,3.06 µM
same,TGI LOVO-DOX,LoVo-Dox,6.77E−06 Molar
same,CC50,LoVo-Dox,≥ 6.77 µM
"CC[C@H](C)[C@@H](NC(=O)[C@H](CCCN)NC(=O)[C@H]1CCCN1C(=O)[C@H](NC(=O)[C@@H](NC(=O)[C@@H](NC(=O)[C@H](NC(=O)CCCC(C)C)C(C)C)[C@@H](C)O)C(C)C)C(C)C)C(=O)N[C@H]1C(=O)N[C@H]([C@@H](C)CC)C(=O)N[C@H](C(C)C)C(=O)N[C@@H](Cc2ccccc2)C(=O)NCC(=O)N[C@@H](C(C)C)C(=O)O[C@@H]1C [Compound 65, [Gly^2]-KF] ({Hexanoyl(5-Me)}-[dV]TV[dV][dP][Orn][d(aIle)][d(aThr)][d(aIle)][dV]FGV; ester 8-C)",GI50,HeLa; SRB,1.21 µM
same,TGI HELA,HeLa; SRB,1.99E−06 Molar
same,CC50,HeLa; SRB,3.26 µM
same,GI50,HeLa-APL; SRB,2.23 µM
same,TGI HELA-APL,HeLa-APL; SRB,6.89E−06 Molar
same,CC50,HeLa-APL; SRB,≥ 6.89 µM
same,TGI HT-29,HT-29; SRB,2.54E−06 Molar
same,GI50,HT-29; SRB,1.23 µM
same,CC50,HT-29; SRB,5.28 µM
same,GI50,IGROV-1,1.44 µM
same,LC50 (concentration causing 50% net cell killing),IGROV-1,4.96 µM
same,TGI IGROV,IGROV-1,2.67E−06 Molar
same,TGI LN-caP,LNCaP,6.89E−06 Molar
same,GI50,LNCaP,3.48 µM
same,CC50,LNCaP,≥ 6.89 µM
same,TGI A-549,A-549; SRB,4.99E−06 Molar
same,GI50,A-549; SRB,1.95 µM
same,CC50,A-549; SRB,≥ 6.89 µM
same,GI50,SK-BR-3,1.16 µM
same,LC50,SK-BR-3,4.19 µM
same,TGI SK-BR-3,SK-BR-3,2.21E−06 Molar
same,GI50,PANC-1; SRB,≥ 6.89 µM
same,TGI PANC-1,PANC-1; SRB,6.89E−06 Molar
same,CC50,PANC-1; SRB,≥ 6.89 µM
same,GI50,DU-145,1.17 µM
same,LC50 (concentration causing 50% net cell kill),DU-145,4.44 µM
same,TGI DU-145,DU-145,2.28E−06 Molar
same,GI50,LoVo; SRB,1.03 µM
same,TGI LOVO,LoVo; SRB,1.98E−06 Molar
same,CC50,LoVo; SRB,3.81 µM
same,GI50,K-562; SRB,3 µM
same,TGI K-562,K-562; SRB,6.89E−06 Molar
same,CC50,K-562; SRB,≥ 6.89 µM
same,GI50,SK-MEL-28,1.43 µM
same,TGI MEL-28,SK-MEL-28,3.39E−06 Molar
same,CC50,SK-MEL-28,≥ 6.89 µM
same,GI50,IGROV-ET,0.806 µM
same,TGI IGROV-ET,IGROV-ET,1.69E−06 Molar
same,CC50,IGROV-ET,3.56 µM
same,GI50,LoVo-Dox; SRB,0.557 µM
same,TGI LOVO-DOX,LoVo-Dox; SRB,1.53E−06 Molar
same,CC50,LoVo-Dox; SRB,3.81 µM
"C/C=C1\NC(=O)[C@H](Cc2ccccc2)NC(=O)[C@@H](C(C)C)NC(=O)[C@@H]([C@@H](C)CC)NC(=O)[C@H](NC(=O)[C@H](NC(=O)[C@H](CCCN)NC(=O)[C@H]2CCCN2C(=O)[C@H](NC(=O)[C@@H](NC(=O)[C@@H](NC(=O)[C@H](NC(=O)CCCC(C)C)C(C)C)[C@@H](C)O)[C@@H](C)O)C(C)C)[C@@H](C)CC)[C@@H](C)OC(=O)[C@H](C(C)C)NC1=O [Compound 50, [Thr^11]-KF] ({Hexanoyl(5-Me)}-[dV]TT[dV][dP][Orn][d(aIle)][d(aThr)][d(aIle)][dV]F[Dhb]V; ester 8-C)",GI50,HeLa,5.58 µM
same,TGI HELA,HeLa,6.76E−06 Molar
same,CC50,HeLa,≥ 6.76 µM
same,GI50,HeLa-APL,≥ 6.76 µM
same,TGI HELA-APL,HeLa-APL,6.76E−06 Molar
same,CC50,HeLa-APL,≥ 6.76 µM
same,TGI HT-29,HT-29,6.76E−06 Molar
same,GI50,HT-29,3.76 µM
same,CC50,HT-29,≥ 6.76 µM
same,GI50,IGROV-1,3.76 µM
same,LC50 (concentration causing 50% net cell killing),IGROV-1,≥ 6.76 µM
same,TGI IGROV,IGROV-1,6.76E−06 Molar
same,TGI LN-caP,LNCaP,6.76E−06 Molar
same,GI50,LNCaP,≥ 6.76 µM
same,CC50,LNCaP,≥ 6.76 µM
same,TGI A-549,A-549,6.76E−06 Molar
same,GI50,A-549,≥ 6.76 µM
same,CC50,A-549,≥ 6.76 µM
same,GI50,SK-BR-3,0.899 µM
same,LC50,SK-BR-3,≥ 6.76 µM
same,TGI SK-BR-3,SK-BR-3,2.58E−06 Molar
same,GI50,PANC-1,4.16 µM
same,TGI PANC-1,PANC-1,6.76E−06 Molar
same,CC50,PANC-1,≥ 6.76 µM
same,GI50,DU-145,≥ 6.7 µM
same,LC50 (concentration causing 50% net cell kill),DU-145,≥ 6.76 µM
same,TGI DU-145,DU-145,6.76E−06 Molar
same,GI50,LoVo,1.21 µM
same,TGI LOVO,LoVo,2.80E−06 Molar
same,CC50,LoVo,6.47 µM
same,GI50,K-562,≥ 6.76 µM
same,TGI K-562,K-562,6.76E−06 Molar
same,CC50,K-562,≥ 6.76 µM
same,GI50,SK-MEL-28,≥ 6.76 µM
same,TGI MEL-28,SK-MEL-28,6.76E−06 Molar
same,CC50,SK-MEL-28,≥ 6.76 µM
same,GI50,IGROV-ET,2.7 µM
same,TGI IGROV-ET,IGROV-ET,6.76E−06 Molar
same,CC50,IGROV-ET,≥ 6.76 µM
same,GI50,LoVo-Dox,1.27 µM
same,TGI LOVO-DOX,LoVo-Dox,2.54E−06 Molar
same,CC50,LoVo-Dox,5.1 µM
